# Reference: PMC8022203 (ACS infectious diseases, 2021)
# Target: HadA (Mycobacterium tuberculosis, UniProt P9WFK1)
# Format: binding
# Sequence of HadA (P9WFK1 whole entry): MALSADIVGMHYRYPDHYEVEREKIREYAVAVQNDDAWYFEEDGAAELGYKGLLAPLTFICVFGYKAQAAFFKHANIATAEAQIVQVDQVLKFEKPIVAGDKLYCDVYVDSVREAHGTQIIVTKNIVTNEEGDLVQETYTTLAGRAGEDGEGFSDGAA
smiles,measurement,value
"CCN(CC)c1ccc2cc(-c3ccc(/C=N/NC(N)=S)s3)c(=O)oc2c1 [Coum-TAC, (E)-((5-(7-((N,N)-diethylamino)-2-oxo-2H-chromen-3-yl)thiophen-2-yl)methylene)hydrazine-1-carbothioamide]","UV-vis, fluorescence and ESI mass spectrometry of re-purified HadA",EthA promotes the formation of a covalent adduct between Coum-TAC and HadA
